Test: Compound 4 pharmacokinetics and tissue exposure after five daily subcutaneous doses
Format: in vivo, C57BL/6 mice
Experimental: Study design details: • Animals were allowed to acclimate to the test facility for at least two days prior to the beginning of the study. • Study animals were male C57BL/6 mice weighing approximately 18-25 grams each. • Fasting was not required for the study. • Body weights were recorded prior to dose administration. The volume of each dose delivered (mL/kg) was based on each individual animal's body weight. • This was a multiple dose serial PK dosed subcutaneously once daily over 5 days. Compound 4 was administered to two groups: Group 1 at 60 mg/kg and Group 2 at 180 mg/kg (6 and 18 mg/mL, 15% Kolliphor ELP in PBS, 10 mL/kg; N=3/group). Serial PK timepoints were collected following the 5th and final dose.
Sample collection details: • Serial blood samples were collected via tail vein snip. • Blood samples were collected into tubes with anticoagulant. Tubes were stored on wet ice until processed to plasma by centrifugation (3500 rpm at 5° C. for 10 minutes) within 20 minutes of collection. Sample aliquots of 20 μL were transferred into individual uniquely labeled matrix tubes and stored at nominal −80° C. until transferred to analytical chemistry for analysis. • Immediately following each terminal blood collection for all groups, animals were sacrificed and perfused with cold PBS. Heart and brain tissues were collected. • Perfusion methodology: The chest was opened lengthwise using scissors to expose the thoracic organs. A scalpel was used to cut a small hole into the left ventricle just large enough to insert a cannula tip. The cannula was attached to an appropriately sized tubing and syringe prefilled with cold PBS and primed to remove any air. The tip of the cannula was inserted into the left ventricle and directed into the ascending aorta. Hemostats were used to help keep the cannula in place during perfusion. A second hole was made in the right atrium to allow for the escape of fluid during the return circulation. The syringe attached to the cannula was manually pushed or placed into a pump programmed to infuse at 10 mL/min. Animals were perfused for a minimum of 3 minutes or more if needed (until the exiting fluid was clear).
• N=3/group; • Collections relative to the final dose: • Plasma: 60 mg/kg at 2 and 24 hr, 180 mg/kg at predose, 2, 8, and 24 hr • Heart and Brain: 24 hr (terminal, PBS-perfused); • RGA 2 bioanalysis.
• N=3/timepoint; • Collections relative to the final dose: • Plasma: 0.5, 2, 8, and 24 hr (terminal) • Heart and Brain: 0.5, 2, 8, and 24 hr (terminal, PBS-perfused) • RGA 2 bioanalysis.

[1] = male, C57BL/6, mouse, in vivo, sc, 60 mg/kg

In the case of CC1=C(C)C(=O)C(CC[C@](C)(O)CCCCCCCCC(F)(F)F)=C(C)C1=O [Compound 4], the time to steady-state (male, C57BL/6, mouse, in vivo, sc) is reported as ≤ 5 days, the AUClast/Dose [1] is reported as 257 kg·ng·h/mL/mg and the Cmax/Dose [1] is reported as 24.0 kg·ng/mL/mg. For the same compound, the AUClast/Dose (male, C57BL/6, mouse, in vivo, sc, 180 mg/kg) was 273 kg·ng·h/mL/mg, the C24/Dose (male, C57BL/6, mouse, in vivo, sc, 180 mg/kg, 24 h) was 1.48 kg·ng/mL/mg and the “concentrations in heart versus brain” value (mouse tissue after 5 days) was “Similar”. The “C24 (trough) tissue exposure versus dose” value (mouse, in vivo) was “approximately proportional to dose”.

From patent US20250144049A1, “METHODS, COMPOSITIONS, AND USES RELATED TO THE TREATMENT AND PREVENTION OF LEIGH SYNDROME” (Stealth BioTherapeutics Inc., priority 2023, published 2025)
